# Measurements taken from patent publication EP4273147A1, “SUBSTITUTED SPIROLACTAMS, SALTS THEREOF AND THEIR USE AS HERBICIDALLY ACTIVE SUBSTANCES” (Bayer Aktiengesellschaft, priority 2022, dated 2023).
# Columns and labels:
# SETVI = test: Herbicidal pre-emergence action (Table A5); assay type: in vivo, Setaria viridis; details: visual grading after ca. 3 weeks
# Summary of the method: (§1)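 Paired sowings (monocot weed with dicot weed) in potted sandy loam, seeds soil-covered.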
# AMARE = test: Herbicidal post-emergence action (Table B11); assay type: in vivo, Amaranthus retroflexus; details: application rate 1280 g/ha
# Procedure: (§2) Seeds of mono- and dicotyledonous weed plants were placed in plastic pots in sandy loam soil (doubly sown with in each case one species of mono- or dicotyledonous weed plants per pot), covered with soil and cultivated in a greenhouse under controlled growth conditions. 2 to 3 weeks after sowing, the test plants were treated at the one-leaf stage. […] After the test plants had been kept in the greenhouse under optimum growth conditions for about 3 weeks, the activity of the preparations was rated visually in comparison to untreated controls. For example, 100% activity = the plants have died, 0% activity = like control plants.
# ECHCG [1] = test: Herbicidal pre-emergence action (Table A2); assay type: in vivo, Echinochloa crus-galli; details: visual grading after ca. 3 weeks
# Summary of the method: as §1
# VERPE = test: Herbicidal post-emergence action (Table B10); assay type: in vivo, Veronica persica; details: application rate 1280 g/ha
# Procedure: as §2
# ECHCG [2] = test: Herbicidal post-emergence action (Table B3); assay type: in vivo, Echinochloa crus-galli; details: application rate 1280 g/ha; rated visually after about 3 weeks
# Summary of the method: (§3)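 Weed seeds sown in sandy loam in pots (one mono- or dicot species per pot), grown in greenhouse; plants treated post-emergence at one-leaf stage, 2–3 weeks after sowing. After ~3 weeks, damage scored visually vs untreated controls (100% = plants dead, 0% = like controls).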
# POAAN [3] = test: Herbicidal post-emergence action (Table B7); assay type: in vivo, Poa annua
# Summary of the method: as §3
# MATIN [4] = test: Herbicidal post-emergence action (Table B6); assay type: in vivo, Matricaria inodora; details: application rate 320 g/ha; rated visually after about 3 weeks
# Procedure: as §2
# POAAN [5] = test: Herbicidal pre-emergence action (Table A7); assay type: in vivo, Poa annua; details: visual grading after ca. 3 weeks
# Summary of the method: as §1
# LOLRI = test: Herbicidal pre-emergence action (Table A3); assay type: in vivo, Lolium rigidum; details: visual grading after ca. 3 weeks
# Summary of the method: as §1
# ALOMY = test: Herbicidal pre-emergence action (Table A9); assay type: in vivo, Alopecurus myosuroides; details: application rate 1280 g/ha; visual grading after ca. 3 weeks
# Summary of the method: as §1
# KCHSC = test: Herbicidal pre-emergence action (Table A10); assay type: in vivo, Kochia scoparia; details: application rate 1280 g/ha; visual grading after ca. 3 weeks
# Summary of the method: as §1
# MATIN [6] = test: Herbicidal pre-emergence action (Table A4); assay type: in vivo, Matricaria inodora; details: application rate 1280 g/ha; visual grading after ca. 3 weeks
# Summary of the method: as §1
# STEME = test: Herbicidal pre-emergence action (Table A6); assay type: in vivo, Stellaria media; details: application rate 1280 g/ha; visual grading after ca. 3 weeks
# Summary of the method: as §1
Compound,pre-emergence activity against SETVI (SETVI; application rate 1280 g/ha) [%],post-emergence activity against AMARE (AMARE) [%],pre-emergence activity against ECHCG (ECHCG [1]; application rate 320 g/ha) [%],post-emergence activity against VERPE (VERPE) [%],post-emergence activity against ECHCG (ECHCG [2]) [%],pre-emergence activity against POAAN (POAAN [5]; application rate 1280 g/ha) [%],pre-emergence activity against SETVI (SETVI; application rate 320 g/ha) [%],pre-emergence activity against ALOMY (ALOMY) [%],pre-emergence activity against KCHSC (KCHSC) [%],pre-emergence activity against LOLRI (LOLRI; application rate 1280 g/ha) [%],pre-emergence activity against MATIN (MATIN [6]) [%],also measured
COc1ccccc1CN1CCCC2(CCCN(Cc3ccccc3Cl)C2=O)C1=O (racemic) [I-095],90,90,100,90,90,–,–,–,–,–,–,–
O=C1N(Cc2ccccc2Cl)CCCC12CCCN(Cc1ccccc1Cl)C2=O (racemic) [I-030],100,–,90,–,–,90,–,–,–,–,–,post-emergence activity against POAAN (POAAN [3]; application rate 320 g/ha): 90%; post-emergence activity against MATIN (MATIN [4]): 90%
O=C1N(Cc2cccs2)CCCC12CCCN(Cc1ccccc1F)C2=O (racemic) [I-065],–,90,90,–,–,–,90,90,90,–,–,pre-emergence activity against LOLRI (LOLRI; application rate 320 g/ha): 100%; post-emergence activity against POAAN (POAAN [3]; application rate 1280 g/ha): 90%
O=C1N(Cc2ccccc2F)CCC12CCN(Cc1ccccc1F)C2=O (racemic) [I-097],100,90,–,–,–,–,–,–,90,90,90,pre-emergence activity against ECHCG (ECHCG [1]; application rate 1280 g/ha): 90%
O=C1N(Cc2ccccc2)CCCC12CCCN(Cc1c(F)cccc1F)C2=O (racemic) [I-068],–,100,100,90,90,–,100,–,–,90,–,pre-emergence activity against POAAN (POAAN [5]; application rate 320 g/ha): 100%; pre-emergence activity against STEME (STEME): 90%
O=C1N(Cc2ccccn2)CCCC12CCCN(Cc1cccc(F)c1F)C2=O (racemic) [I-108],90,90,90,–,–,90,–,90,–,–,90,–
